From article PMC4822341 (Cell Discovery, 2015)

Experiments:
PR = target: T1, PR (Homo sapiens, UniProt P06401); experiment: PR reporter assay (off-target activity); type: cell-based; conditions: steroid 1 μM; percent of 1 μM progesterone
T1 construct: expressed in transfected cells; host or cells: AD293
T1 sequence (P06401 1-933): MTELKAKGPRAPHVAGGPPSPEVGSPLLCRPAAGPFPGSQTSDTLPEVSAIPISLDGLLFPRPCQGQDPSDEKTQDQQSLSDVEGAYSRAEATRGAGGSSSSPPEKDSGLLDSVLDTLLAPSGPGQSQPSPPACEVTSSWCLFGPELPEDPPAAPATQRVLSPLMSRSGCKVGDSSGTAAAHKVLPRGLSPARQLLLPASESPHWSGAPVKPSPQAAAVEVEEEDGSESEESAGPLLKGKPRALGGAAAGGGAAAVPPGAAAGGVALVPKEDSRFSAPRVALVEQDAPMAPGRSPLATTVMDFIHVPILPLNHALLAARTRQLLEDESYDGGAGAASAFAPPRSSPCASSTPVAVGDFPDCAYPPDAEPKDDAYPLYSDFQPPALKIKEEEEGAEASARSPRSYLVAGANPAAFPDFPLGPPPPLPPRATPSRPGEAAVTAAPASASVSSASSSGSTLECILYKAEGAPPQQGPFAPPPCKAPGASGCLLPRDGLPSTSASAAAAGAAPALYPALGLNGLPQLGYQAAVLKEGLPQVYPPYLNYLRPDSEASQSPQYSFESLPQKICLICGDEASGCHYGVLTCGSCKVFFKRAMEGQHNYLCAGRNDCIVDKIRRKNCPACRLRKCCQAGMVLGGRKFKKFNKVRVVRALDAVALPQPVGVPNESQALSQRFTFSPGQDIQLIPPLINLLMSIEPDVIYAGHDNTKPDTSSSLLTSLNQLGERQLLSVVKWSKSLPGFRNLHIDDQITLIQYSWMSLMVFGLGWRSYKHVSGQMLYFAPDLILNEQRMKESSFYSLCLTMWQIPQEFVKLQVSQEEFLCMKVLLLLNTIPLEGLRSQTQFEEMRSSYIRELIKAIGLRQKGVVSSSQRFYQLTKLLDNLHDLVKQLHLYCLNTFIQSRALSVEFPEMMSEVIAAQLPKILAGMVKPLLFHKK
Method: Similar to previous reports, for induction 100 ng pHHLuc (MMTV-Luc) plasmid, 0.1 ng pRShGR together with 5 ng phRGtkRenilla were transfected by X-tremeGENE 9 (Roche) into AD293 cells per well in 24-well plate. For transrepression, 10 ng AP-1-Luc or 10ng pNF-κB-luc, 100 ng pRShGR and 5 ng phRGtkRenilla were transfected into AD293 cells per well. We used the same transfection protocol for the MR and PR assays, except of the use of 0.1 ng MR or PR plasmid to substitute GR. One day after transfection, for induction, cells were directly treated by steroids for 16 h; for repression, cells were treated with either PMA at 0.6 ng ml^–1 (for AP-1 reporter) or TNFα at 2 ng ml^–1 (for NF-κB reporter), together with various steroids. Cells were collected by addition of 1× Passive Lysis Buffer (Promega, Madison, WI, USA), and luciferase activity was assayed by the Dual-Glo Luciferase system (Promega). Data were plotted as firefly luciferase activity normalized to Renilla luciferase activity in Relative Luciferase Units.

[1] = Body weight (growth inhibition) of DBA/1 mice; type: in vivo; conditions: 0.0625 mg kg^-1 daily, 2 weeks
Method: Figure 5 Examination of side effects of VSGC12 and FF at the effective dose. (a) Body weight of DBA/1 mice treated with the indicated daily dose of steroids for 2 weeks. Mice body weight was measured at day 0, 7 and 14. (b) Insulin-tolerance test of mice treated with the indicated daily doses of steroids for 7 days. Glucose level was measured at day 7 at various time points before and after insulin injection. Data were plotted as percent of the glucose level of time 0. (c) Plasma insulin levels of mice treated with the indicated daily doses of steroid for 7 days. (d) Spleen size and weight for mice treated with the indicated daily doses of steroid for 2 weeks. (e) Cortical bone thickness of femurs of mice treated with the indicated daily doses of steroid for 2 weeks. (f) Bone stiffness of femurs of mice treated with the indicated daily doses of steroid for 2 weeks. Mouse strain: DBA/1. Each treatment n=5, error bars indicate s.e.m., *P<0.05; **P<0.01; ***P<0.001.

[2] = Bone density (μCT) and biomechanics testing of femurs; type: in vivo, DBA/1 mice; conditions: 2 weeks; for cortical bone thickness of femurs: μCT
Method: Femur bones were collected and scanned by μCT (Skyscan 1172 uCT) for quantification of trabecular and cortical bone parameters. The thresholds for μCT quantification of trabecular and cortical bone parameters were set at 80–100 and 100–110, respectively. μCT analyses of cortical bone parameters were performed on 100-μCT slices (1 mm total) from the middle shaft of femurs; trabecular parameters were assessed in 100-μCT slices (1 mm total) immediately below the distal growth plate of the femur. Following uCT scans, the femurs were individually tested on a TestResources 570 Force Transducer. Bones were thawed in PBS before being tested, to ensure no brittleness was due to freezing. […] Data points were collected at a frequency of 50 Hz and a deflection rate of 0.005 mm s^–1.

Compound: CON(C)C(=O)C1(OC(=O)c2ccco2)C(C)CC2C3CC(F)C4=Cc5c(cnn5-c5ccccc5)CC4(C)C3(F)C(O)CC21C (stereo not drawn) [VSGC12]
- PR activity (PR): higher activity than VSG22, but a lower activity than MF, FF and FP
- growth inhibition (body weight) [1]: did not cause a significant growth inhibition
- bone strength (stiffness) of femurs ([2]; 0.0625 mg kg^-1 daily): no longer caused damage to bone strength
- cortical bone thickness of femurs ([2]; 0.0625 mg kg^-1 daily): did not cause a significant decrease compared with vehicle treatment
- bone strength (stiffness) of femurs ([2]; 0.25 mg kg^-1 daily): no longer caused damage to bone strength
- cortical bone thickness of femurs ([2]; 0.25 mg kg^-1 daily): only caused a mild decrease
